Laboratory results: US8969589B2, “Compounds acting at multiple prostaglandin receptors giving a general anti-inflammatory response” (Allergan, Inc., priority 2011, dated 2015)

Key:
Format in all cases: cell-based
[1] = biological target: T1, human prostanoid TP receptor (Homo sapiens, UniProt P21731); test: FLIPR Ca2+ signaling PG antagonist assay, TP stable cell line; settings: antagonist Kb vs standard agonist U-46619; HEK-293 EBNA cells
T1 construct: expressed in transfected cells
T1 sequence (P21731 1-343): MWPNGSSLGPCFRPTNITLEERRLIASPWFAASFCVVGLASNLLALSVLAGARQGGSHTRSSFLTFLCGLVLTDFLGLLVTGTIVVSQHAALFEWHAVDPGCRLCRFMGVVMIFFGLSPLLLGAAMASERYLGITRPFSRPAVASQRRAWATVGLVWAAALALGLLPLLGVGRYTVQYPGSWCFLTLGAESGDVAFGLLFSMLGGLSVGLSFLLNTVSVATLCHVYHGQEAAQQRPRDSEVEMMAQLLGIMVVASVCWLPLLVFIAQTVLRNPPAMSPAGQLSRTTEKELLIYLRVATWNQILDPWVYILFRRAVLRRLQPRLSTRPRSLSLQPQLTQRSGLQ
Description: (§1) The above compounds were tested for PG antagonist activity as follows using human recombinant prostanoid receptor (DP1, EP1-4, FP, IP and TP) stable cell lines:
(§2) In order to measure the response of Gs and Gi coupled prostanoid receptors as a Ca^2+ signal, chimeric G protein cDNAs were used. Stable cell lines over-expressing human prostanoid DP1, EP1-4, FP, IP, and TP receptors were established as follows:
(§3) Briefly, human prostanoid DP1, EP2, and EP4 receptor cDNAs were co-transfected with chimeric Gqs cDNA containing a haemagglutanin (HA) epitope; human prostanoid EP3 receptors were co-transfected with chimeric Gqi-HA; human EP1, FP, IP, and TP receptor cDNAs were expressed with no exogenous G-proteins. Gqs and Gqi chimeric cDNAs (Molecular Devices, Sunnyvale, Calif., U.S.A.), as well as cDNAs of prostanoid receptors, were cloned into a pCEP4 vector with a hygromycin B selection marker. Transfection into HEK-293 EBNA (Epstein-Barr virus nuclear antigen) cells was achieved by the FuGENE 6 transfection Reagent (Roche Applied Science, Indianapolis, Ind., USA). Stable transfectants were selected according to hygromycin resistance. Because Gqs and Gqi contained an HA epitope, G-protein expression was detected by Western blotting analysis using anti-mouse HA monoclonal antibody and horseradish peroxidase (HRP)-conjugated secondary antibody, while functional expression of prostanoid receptors was detected by FLIPR screening (Matias et al., 2004). These stable cell lines were validated using previously published antagonists at 10 μM against serial dilutions of standard agonists by FLIPR functional assays for Ca^2− Signaling (as described below).
(§4) Ca^2+ signaling studies were performed using a FLIPR TETRA system (Molecular Devices, Sunnyvale, Calif., USA) in the 384-format. This is a high-throughput instrument for cell-based assays to monitor Ca^2+ signaling associated with GPCRs and ion channels. Cells were seeded at a density of 5×10^4 cells/well in BioCoat poly-D-lysine coated, black wall, clear bottom 384-well plates (BD Biosciences, Franklin lakes, N.J., USA) and allowed to attach overnight in an incubator at 37° C. The cells were then washed twice with HBSS-HEPES buffer (Hanks' balanced salt solution without bicarbonate and phenol red, 20 mM HEPES, pH 7.4) using an ELx405 Select CW Microplate Washer (BioTek, Winooski, Vt., USA). […] Cells were excited with LED (light emitting diode) excitation at 470-495 nm and emission was measured through an emission filter at 515-575 nm. Assay plates were read for 3.5 minutes using the FLIPR^TETRA. The peak increase in fluorescence intensity was recorded for each well. […]

[2] = biological target: T2, human prostanoid DP1 receptor (Homo sapiens, UniProt Q13258); test: FLIPR Ca2+ signaling PG antagonist assay, DP1 stable cell line; settings: antagonist Kb vs standard agonist BW 245C; HEK-293 EBNA cells with chimeric Gqs
T2 construct: expressed in transfected cells
T2 sequence (Q13258 1-359): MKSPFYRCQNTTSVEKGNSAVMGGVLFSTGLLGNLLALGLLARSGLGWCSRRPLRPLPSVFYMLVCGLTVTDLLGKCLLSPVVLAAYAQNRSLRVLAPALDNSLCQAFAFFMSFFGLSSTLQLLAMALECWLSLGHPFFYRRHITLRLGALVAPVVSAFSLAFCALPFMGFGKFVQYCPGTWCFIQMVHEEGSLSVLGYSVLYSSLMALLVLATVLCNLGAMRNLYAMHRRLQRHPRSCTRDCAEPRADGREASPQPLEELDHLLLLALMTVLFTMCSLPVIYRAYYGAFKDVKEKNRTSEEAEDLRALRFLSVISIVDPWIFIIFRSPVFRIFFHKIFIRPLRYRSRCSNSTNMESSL
Description: as §1, §2, §3, §4

[3] = biological target: T3, human prostanoid EP4 receptor (Homo sapiens, UniProt P35408); test: FLIPR Ca2+ signaling PG antagonist assay, EP4 stable cell line; settings: antagonist Kb vs standard agonist PGE2; HEK-293 EBNA cells with chimeric Gqs
T3 construct: expressed in transfected cells
T3 sequence (P35408 whole entry): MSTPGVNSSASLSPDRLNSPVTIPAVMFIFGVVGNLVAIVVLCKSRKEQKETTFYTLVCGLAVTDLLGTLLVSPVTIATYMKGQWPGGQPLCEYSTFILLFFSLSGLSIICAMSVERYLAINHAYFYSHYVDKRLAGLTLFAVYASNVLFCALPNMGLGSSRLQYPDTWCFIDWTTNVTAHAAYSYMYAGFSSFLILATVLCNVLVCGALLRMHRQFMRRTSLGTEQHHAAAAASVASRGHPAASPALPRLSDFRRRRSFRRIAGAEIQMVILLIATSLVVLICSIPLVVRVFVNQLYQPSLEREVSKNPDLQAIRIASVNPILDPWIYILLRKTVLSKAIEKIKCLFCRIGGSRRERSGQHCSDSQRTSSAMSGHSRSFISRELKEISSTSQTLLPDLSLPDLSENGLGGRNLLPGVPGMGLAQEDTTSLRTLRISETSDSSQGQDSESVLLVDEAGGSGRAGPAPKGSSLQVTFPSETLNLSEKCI
Description: as §1, §2, §3, §4

[4] = biological target: T4, human prostanoid EP3 receptor (Homo sapiens, UniProt P43115); test: FLIPR Ca2+ signaling PG antagonist assay, EP3 stable cell line; settings: antagonist Kb vs standard agonist PGE2; HEK-293 EBNA cells with chimeric Gqi
T4 construct: expressed in transfected cells
T4 sequence (P43115 1-390): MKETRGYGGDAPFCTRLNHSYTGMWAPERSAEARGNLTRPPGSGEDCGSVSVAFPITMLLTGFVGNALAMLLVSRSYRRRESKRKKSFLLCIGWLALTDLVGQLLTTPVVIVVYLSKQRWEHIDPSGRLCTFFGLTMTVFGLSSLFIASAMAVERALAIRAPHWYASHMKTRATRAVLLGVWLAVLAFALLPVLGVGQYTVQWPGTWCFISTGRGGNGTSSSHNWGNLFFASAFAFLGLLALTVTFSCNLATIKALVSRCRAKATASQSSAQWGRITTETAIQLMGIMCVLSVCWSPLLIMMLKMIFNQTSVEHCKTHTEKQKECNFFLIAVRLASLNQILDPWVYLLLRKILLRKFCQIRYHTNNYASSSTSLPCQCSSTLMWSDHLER
Description: as §1, §2, §3, §4

[5] = biological target: T5, human prostanoid EP2 receptor (Homo sapiens, UniProt P43116); test: FLIPR Ca2+ signaling PG antagonist assay, EP2 stable cell line; settings: antagonist Kb vs standard agonist PGE2; HEK-293 EBNA cells with chimeric Gqs
T5 construct: expressed in transfected cells
T5 sequence (P43116 whole entry): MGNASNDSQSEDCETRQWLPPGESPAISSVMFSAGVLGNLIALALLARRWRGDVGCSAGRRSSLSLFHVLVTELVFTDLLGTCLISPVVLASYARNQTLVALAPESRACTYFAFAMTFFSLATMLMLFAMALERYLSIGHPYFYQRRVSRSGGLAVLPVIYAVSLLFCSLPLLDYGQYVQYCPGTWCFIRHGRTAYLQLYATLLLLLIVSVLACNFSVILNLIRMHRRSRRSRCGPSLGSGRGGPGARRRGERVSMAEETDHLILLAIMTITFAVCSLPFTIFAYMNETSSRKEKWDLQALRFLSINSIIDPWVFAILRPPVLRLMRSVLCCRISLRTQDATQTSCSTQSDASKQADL
Description: as §1, §2, §3, §4

[6] = biological target: T6, human prostanoid IP receptor (Homo sapiens, UniProt P43119); test: FLIPR Ca2+ signaling PG antagonist assay, IP stable cell line; settings: antagonist Kb vs standard agonist Cicaprost; HEK-293 EBNA cells
T6 construct: expressed in transfected cells
T6 sequence (P43119 whole entry): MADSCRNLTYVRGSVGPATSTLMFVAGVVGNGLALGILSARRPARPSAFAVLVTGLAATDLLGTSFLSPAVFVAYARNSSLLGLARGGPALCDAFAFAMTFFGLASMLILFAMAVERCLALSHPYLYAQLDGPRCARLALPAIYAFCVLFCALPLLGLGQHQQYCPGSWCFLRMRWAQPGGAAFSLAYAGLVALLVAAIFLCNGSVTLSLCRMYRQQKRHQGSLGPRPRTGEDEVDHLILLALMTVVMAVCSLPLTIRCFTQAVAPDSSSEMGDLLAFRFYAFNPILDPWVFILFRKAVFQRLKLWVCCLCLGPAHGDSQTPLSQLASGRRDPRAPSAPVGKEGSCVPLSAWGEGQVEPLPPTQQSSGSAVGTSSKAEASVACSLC
Description: as §1, §2, §3, §4

[7] = biological target: T7, human prostanoid FP receptor (Homo sapiens, UniProt P43088); test: FLIPR Ca2+ signaling PG antagonist assay, FP stable cell line; settings: antagonist Kb vs standard agonist 17-phenyl-PGF2α; HEK-293 EBNA cells
T7 construct: expressed in transfected cells
T7 sequence (P43088 whole entry): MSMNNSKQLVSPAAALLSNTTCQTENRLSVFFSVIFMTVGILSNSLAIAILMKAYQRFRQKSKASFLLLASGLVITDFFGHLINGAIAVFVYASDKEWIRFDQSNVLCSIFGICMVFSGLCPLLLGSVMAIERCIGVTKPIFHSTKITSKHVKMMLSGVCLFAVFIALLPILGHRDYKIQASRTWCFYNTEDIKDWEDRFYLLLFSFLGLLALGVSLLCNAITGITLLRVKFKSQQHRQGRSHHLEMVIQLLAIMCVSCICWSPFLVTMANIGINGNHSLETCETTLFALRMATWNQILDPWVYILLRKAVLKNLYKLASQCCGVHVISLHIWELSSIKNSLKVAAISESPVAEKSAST
Description: as §1, §2, §3, §4

[8] = biological target: T8, human prostanoid EP1 receptor (Homo sapiens, UniProt P34995); test: FLIPR Ca2+ signaling PG antagonist assay, EP1 stable cell line; settings: antagonist Kb vs standard agonist PGE2; HEK-293 EBNA cells
T8 construct: expressed in transfected cells
T8 sequence (P34995 1-402): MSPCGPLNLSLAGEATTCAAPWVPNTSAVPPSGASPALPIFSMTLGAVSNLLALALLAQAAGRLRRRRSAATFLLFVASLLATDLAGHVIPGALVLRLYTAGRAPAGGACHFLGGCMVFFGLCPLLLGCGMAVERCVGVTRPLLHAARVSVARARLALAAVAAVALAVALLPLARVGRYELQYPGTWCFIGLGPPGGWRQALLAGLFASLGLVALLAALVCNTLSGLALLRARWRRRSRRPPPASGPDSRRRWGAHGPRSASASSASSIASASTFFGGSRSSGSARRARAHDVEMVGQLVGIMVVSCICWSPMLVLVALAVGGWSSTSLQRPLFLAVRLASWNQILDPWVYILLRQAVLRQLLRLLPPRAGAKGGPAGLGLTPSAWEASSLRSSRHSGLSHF
Description: as §1, §2, §3, §4

SMILES	Kb [1]	Kb [2]	Kb [3]	Kb [4]	Kb [5]	Kb [6]	Kb [7]	Kb [8]	TP (Kb) [1]	DP1 (Kb) [2]
CCC(CC)COc1ccc(Br)cc1Cn1nc(OCC(=O)O)cc1C [Example 1, {1-[5-bromo-2-(2-ethyl-butoxy)-benzyl]-5-methyl-1H-pyrazol-3-yl}-oxaacetic acid]	2 nM	640 nM	130 nM	≥ 10000 nM	≥ 10000 nM	220 nM	250 nM	40 nM		
CCC(CC)COc1ccc(Cl)cc1Cn1nc(OCC(=O)O)cc1C [Example 2, {1-[5-chloro-2-(2-ethyl-butoxy)-benzyl]-5-methyl-1H-pyrazol-3-yloxy}-acetic acid]		500 nM	350 nM	≥ 10000 nM	≥ 10000 nM	600 nM	980 nM	75 nM	PAg	
Cc1cc(OCC(=O)O)nn1Cc1cc(Cl)ccc1OCc1ccc(Cl)cc1 [Example 3, {1-[5-chloro-2-(4-chloro-benzyloxy)-benzyl]-5-methyl-1H-pyrazol-3-yloxy}-acetic acid]	1 nM	1000 nM	≥ 10000 nM	3700 nM	340 nM	500 nM	220 nM	9 nM		
Cc1cc(OCC(=O)O)nn1Cc1cc(Cl)ccc1OCC(C)C [Example 4, [1-(5-chloro-2-isobutoxy-benzyl)-5-methyl-1H-pyrazol-3-yloxy]-acetic acid]	15 nM		≥ 10000 nM	≥ 10000 nM	≥ 10000 nM	≥ 10000 nM	1700 nM	110 nM		PAg
